We go through 21 molecules from patent EP1641803B1, “THIENOPYRIMIDINE DERIVATIVES AS POTASSIUM CHANNEL INHIBITORS” (Xention Limited, priority 2003, dated 2004).

One assay addresses T1, human Kv1.5 (Homo sapiens, UniProt P22460).
T1 construct: expressed in transfected cells
The assay is described as follows: Kv1.5 Rb+ Efflux Assay. It is filed as cell-based. Conditions: inhibition of 86Rb+ efflux through Kv1.5; cells stably transfected with human Kv1.5; 10 point concentration response curves n=2; normalised to 2.5mM 4 amino-pyridine block. As for the experimental part:
The pore of a potassium channel is permeable to other monovalent cations such as Rb^+ and Tl^+. Analysis of cellular efflux of potassium channel permeable ions enables potassium channel activity to be monitored directly. Cells stably transfected with cDNA for human Kv1.5 (in pEF6::VA-His-TOPO) were grown in Dulbecco's Modified Eagle media (DMEM) alpha supplemented with 10% Fetal Calf Serum (FCS), 20 µl/ml penicillin (5000U/ml) streptomycin (5000µg/ml), 10µl/ml [100x] glutamine, and blasticidin (7.5µg/ml). Cells were dispensed into 96 well cellstar TC plates and allowed to grow until a confluent monolayer was visible. On the morning of the assay run, cold media was aspirated using the TECAN plate washer, and a 50µl media spike containing 2µCi/ml (37kBq/ml) ^86Rb^+ added to each well containing cells using the Shallow-Well Matrix Platemate. Plates were placed in a incubator at 37°C for a minimum of 3 hours. Unloaded ^86Rb^+ in the "hot" media was aspirated and each well washed 4x250µl with Earls Balanced Salt Solution (EBSS) which contained 5mM KCl, 140mM NaCl, 2mM CaCl2, 1mM MgSO4, 10mM HEPES, and 5mM glucose, pH 7.4, 290-300 mOsm. These cells were then pre-incubated with 50µl of EBSS +/- test compounds for 10 minutes at room temperature. After the 10 minute incubation, 50µl of modified EBSS which contained 145mM KCl, 2mM CaCl2, 1mM MgSO4, 10mM HEPES, 5mM glucose, pH 7.4, 290-300 mOsm, was added, and the cells were incubated for a further 10 minutes at room temperature. The high KCl EBSS was used to depolarise cells to a membrane potential that would activate Kv1.5 channels. After the final incubation 80µl/100µl of the reaction from each well was transferred to equivalent wells in a Packard "Optiplate" white 96 well plate and counted in a Packard TopCount liquid scintillation counter by Cerenkov emission. Percentage inhibition ^86Rb^+ efflux through Kv1.5 was calculated by normalisation to 2.5mM 4 amino-pyridine control block of Kv1.5. Alternatively cells were loaded with ^85Rb^+ and quantified by atomic absorption spectroscopy. IC50 determinations were derived from 10 point concentration response curves n=2 using the method described above. Data was fitted as variable slope sigmoidal fit using Graphpad Prism (V3.02) software.

A further assay deals with hKv1.5 (Homo sapiens, UniProt P22460). The assay is described as follows: Kv1.5 Autopatch Electrophysiology (whole cell patch-clamp). It is filed as cell-based. Conditions: compound at 1µM, room temperature (22-24°C), held at -80mV, step to 0mV for 1000ms, total charge measured. As for the experimental part: The external bathing solution contained (in mM): 150 NaCl, 10 KCl, […], 3 MgCl2, 1 CaCl2, 10 HEPES, pH 7.4. Patch pipettes were filled with an electrode solution of composition (in mM): 160 KCl, 0.5 MgCl2, 10 HEPES, 1 EGTA, pH 7.4 with KOH.
Compounds were dissolved in DMSO (100 %) and made up in the external bather at a concentration of 1µM. All experiments were conducted at room temperature (22-24°C).
A cell suspension (10 ml), with a density of 100,000 cells/ml, was aliquoted into a 15ml centrifuge tube and transferred to an incubator (37°C, 5% CO2) for approximately one hour before use. Following 60 min incubation, a tube was taken and centrifuged at 1000 rpm for 4 mins at room temperature. 9.5 ml supernatant was thence discarded, leaving a cell pellet at the bottom of the tube. The pellet was then resuspended using 100 µl of cold (4 °C), filtered (0.22 µm), 0.2 % BSA/bather solution (0.02g BSA/10ml bather). The bottom of the tube was manually agitated gently until the solution became cloudy with cells. The 100 µl cell resuspension solution was then stored on the bench at 4 °C (using a Peltier-based temperature control device) until used.
A length of capillary glass (1B150F-4, WPI) was dipped into the cell suspension solution, such that - 3 cm column of fluid was taken up by capillary action. A Ag/AgCl wire was dropped into the non-dipped end of the capillary also. The outside of the solution-filled end of the capillary was then dried and the capillary was loaded into the AutoPatch™. Borosilicate glass patch pipettes (from 1.5mm OD, thin-walled filamented, GC150-TF capillary glass, Harvard) were pulled using a DMZ pipette puller (Zeitz Instruments), and were back-filled using the internal pipette solution, being careful that no bubbles remain at the tip or in the body of the pipette. Patch pipettes typically had resistances of 2.3-3.5 MΩ. Once filled, the pipette tip and a proportion of the shaft (- 15 mm) were dipped into Sigmacote (Sigma). The recording pipette was then loaded into the AutoPatch™.
Automated patch-clamping was initiated by the operator, but thereafter AutoPatch.exe continued the experiment providing that pre-set conditions and criteria were satisfied.
Whole cell patch-clamp recordings were made using the AutoPatch™ rig, which incorporated an EPC9 amplifier (HEKA, Germany) under control of Pulse software (v8.54, HEKA, Germany), a motion controller with 2 translators (Newport, UK), valve controller (VF1) and a c-level suction device all at room temperature (22-24°C). This equipment was completely under the control of AutoPatch.exe and operator intervention was only made when there was a requirement to refill the drug reservoirs or to prevent the loss of a cell due to a technical error. Cells with an Rseries greater than 18 MΩ were discounted from the experiment.
Qualification stages prior to perfusion and drug application ensured that the observed current met the criteria for the experiment. Only those cells with an IK > 500 pA were used for experiments. Cells were continuously perfused with external solution at a flow rate of 1.8-2 ml/minute. […] Online analysis of the hKv1.5 current during the application of compounds was performed by the AutoPatch™ software. Voltage-step protocols and analysis of data was performed as described for conventional electrophysiology.
Electrophysiology voltage-step protocols and analysis of data was performed as follows. Data was sampled at 5kHz, and filtered with a -3 dB bandwidth of 2.5kHz. Cells were held at a voltage of -80mV. Currents were evoked to a voltage step for 1000ms in duration at 0mV every 5s. Currents were analysed using Pulsefit software (v8.54, HEKA, Germany), with the total charge measured during the whole of the voltage step. All other plots were produced using Igor Pro (WaveMetrics).
For orientation: The patch-clamp technique gives a direct electrical read-out from membranes.

T1 sequence (P22460 whole entry): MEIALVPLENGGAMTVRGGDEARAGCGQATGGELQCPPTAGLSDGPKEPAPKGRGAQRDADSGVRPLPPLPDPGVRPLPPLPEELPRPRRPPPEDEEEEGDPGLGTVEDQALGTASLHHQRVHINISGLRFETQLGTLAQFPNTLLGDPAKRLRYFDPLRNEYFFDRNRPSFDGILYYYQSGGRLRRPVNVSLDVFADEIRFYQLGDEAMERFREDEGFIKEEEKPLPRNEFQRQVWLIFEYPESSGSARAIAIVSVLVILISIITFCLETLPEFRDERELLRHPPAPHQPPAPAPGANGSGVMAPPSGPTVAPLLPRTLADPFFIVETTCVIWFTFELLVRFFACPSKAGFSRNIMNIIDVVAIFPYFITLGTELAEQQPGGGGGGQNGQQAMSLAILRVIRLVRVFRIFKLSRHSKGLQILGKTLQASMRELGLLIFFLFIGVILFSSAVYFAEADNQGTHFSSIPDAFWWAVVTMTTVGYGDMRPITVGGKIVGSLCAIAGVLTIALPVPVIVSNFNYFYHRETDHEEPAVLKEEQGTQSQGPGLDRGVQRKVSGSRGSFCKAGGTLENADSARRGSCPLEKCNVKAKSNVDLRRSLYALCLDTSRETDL
hKv1.5, sequence (P22460 whole entry): as above

Molecule `FC(F)(F)c1ccc(-c2csc3ncnc(NCc4ccccn4)c23)cc1` [Example 313, Pyridin-2-ylmethyl-[5-(4-trifluoromethyl-phenyl)-thieno[2,3-d]pyrimidin-4-yl]-amine] gave a half-maximal inhibitory concentration (IC50) against human Kv1.5 of 2.9 µM. The molecule further yielded an inhibition at 1 µM against hKv1.5 of 98.3%.

For the molecule `c1ccc(-c2csc3nc(NCC4CC4)nc(NCc4ccccn4)c23)cc1` [Example 188, N^2-Cyclopropylmethyl-5-phenyl-N^4-pyridin-2-ylmethyl-thieno[2,3-d]pyrimidine-2,4-diamine], it took 2.52 µM to reach half-maximal inhibition against human Kv1.5 (IC50). This molecule gave an inhibition at 1 µM against hKv1.5 of 98%.

As for `CNc1nc(NCc2ccccn2)c2c(-c3ccc(F)cc3)csc2n1` [Example 204, 5-(4-Fluorophenyl)-N^2-methyl-N^4-pyridin-2-ylmethyl-thieno[2,3-d]pyrimidine-2,4-diamine], 4.7 µM corresponded to half-maximal inhibition against human Kv1.5 (IC50). On hKv1.5, this molecule had an inhibition at 1 µM of 97.9%.

For `Cc1sc2ncnc(N3CCCCC3)c2c1-c1ccccc1` [Example 159, 6-Methyl-5-phenyl-4-piperidin-1-yl-thieno[2,3-d]pyrimidine], the IC50 against human Kv1.5 came out at 13.4 µM. The molecule further returned an inhibition at 1 µM against hKv1.5 of 83%.

Take `CCc1sc2ncnc(NCc3ccco3)c2c1-c1ccccc1` [Example 140, (6-Ethyl-5-phenyl-thieno[2,3-d]pyrimidin-4-yl)-furan-2-ylmethyl-amine]: the IC50 on human Kv1.5 is 2.71 µM. In addition, the inhibition at 1 µM at hKv1.5 came to 74.2%.

Turning to `Clc1nc(NCc2ccccn2)c2c(-c3ccccc3)csc2n1` [Example 181, (2-Chloro-5-phenyl-thieno[2,3-d]pyrimidin-4-yl)-pyridin-2-ylmethyl-amine], the 50% inhibitory concentration (IC50) at human Kv1.5 turned out to be 4.13 µM. This molecule registered an inhibition at 1 µM at hKv1.5 of 96%.

As for `c1coc(CNc2ncnc3scc(C4CCCCC4)c23)c1` [Example 147, (5-Cyclohexyl-thieno[2,3-d]pyrimidin-4-yl)-furan-2-ylmethyl-amine], the half-inhibitory concentration (IC50) against human Kv1.5 is 2.52 µM. Also, the inhibition at 1 µM against hKv1.5 is 71%.

On human Kv1.5, `c1ccc(COc2ncnc3scc(-c4ccccc4)c23)cc1` [Example 119, 4-Benzyloxy-5-phenyl-thieno[2,3-d]pyrimidine] registered an IC50 of 5.79 µM. The same molecule showed an inhibition at 1 µM against hKv1.5 of 44.1%.

Consider `N#Cc1nc(NCc2ccccn2)c2c(-c3ccccc3)csc2n1` [Example 199, 5-Phenyl-4-[(pyridin-2-ylmethyl)-amino]-thieno[2,3-d]pyrimidine-2-carbonitrile], for which, on human Kv1.5, the 50% inhibitory concentration (IC50) was 6.61 µM. Besides, 1 µM produced 99.5% inhibition against hKv1.5.

At human Kv1.5, `c1ccc(-c2csc3ncnc(NCc4ccco4)c23)cc1` [Example 83, Furan-2-ylmethyl-(5-phenyl-thieno[2,3-d]pyrimidin-4-yl)-amine] registered an IC50 of 0.07 µM. This molecule also registered an inhibition at 1 µM against hKv1.5 of 21.9%.

In turn, `c1ccc(COc2nc(NCc3ccco3)c3c(-c4ccccc4)csc3n2)cc1` [Example 195, (2-Benzyloxy-5-phenyl-thieno[2,3-d]pyrimidin-4-yl)-furan-2-ylmethyl-amine] returned an IC50 against human Kv1.5 of 6.39 µM. Besides, at hKv1.5, the inhibition at 1 µM was determined as 90%.

On human Kv1.5, `OCC(CO)c1nc(NCc2ccccn2)c2c(-c3ccccc3)csc2n1` [Example 275, 2-{5-Phenyl-4-[(pyridin-2-ylmethyl)-amino]-thieno[2,3-d]pyrimidin-2-yl}-propane-1,3-diol] showed an IC50 of 1.53 µM. At hKv1.5, this molecule displayed an inhibition at 1 µM of 93%.

In the case of `Cc1ccc(-c2csc3ncnc(NCc4ccco4)c23)cc1` [Example 126, Furan-2-ylmethyl-(5-p-tolyl-thieno[2,3-d]pyrimidin-4-yl)-amine], the IC50 against human Kv1.5 came to 0.47 µM. The inhibition at 1 µM against hKv1.5 stood at 83.4%.

Molecule `Cc1nc(NCc2ccco2)c2c(-c3ccccc3)csc2n1` [Example 150, Furan-2-ylmethyl-(2-methyl-5-phenyl-thieno[2,3-d]pyrimidin-4-yl)-amine] returned an IC50 at human Kv1.5 of 0.14 µM. The molecule also had an inhibition at 1 µM against hKv1.5 of 96.8%.

Consider `Cc1ccc(-c2csc3ncnc(NCCN4CCNC4=O)c23)cc1` [Example 128, 1-[2-(5-p-Tolyl-thieno[2,3-d]pyrimidin-4-ylamino)-ethyl]-imidazolidin-2-one], for which the half-maximal inhibitory concentration (IC50) against human Kv1.5 was above 30 µM. Moreover, on hKv1.5, the inhibition at 1 µM is 25%.

`Cc1ccc(-c2csc3ncnc(NCc4ccco4)c23)cc1C` [Example 133, [5-(3,4-Dimethyl-phenyl)-thieno[2,3-d]pyrimidin-4-yl]-furan-2-ylmethyl-amine] came in with an IC50 against human Kv1.5 of 0.67 µM. This molecule registered an inhibition at 1 µM against hKv1.5 of 77%.

For `Brc1ccc(-c2csc3ncnc(NCCc4ccc5c(c4)OCCO5)c23)cc1` [Example 137, [5-(4-Bromo-phenyl)-thieno[2,3-d]pyrimidin-4-yl]-[2-(2,3-dihydro-benzo[1,4]dioxin-6-yl)-ethyl]-amine], the IC50 on human Kv1.5 was 10.7 µM. Further, the inhibition at 1 µM at hKv1.5 worked out at 96%.

`c1ccc(-c2csc3ncnc(NC4CCCc5ccccc54)c23)cc1` (stereo not drawn) [Example 158, (5-Phenyl-thieno[2,3-d]pyrimidin-4-yl)-(1,2,3,4-tetrahydro-naphthalen-1-yl)-amine]: half-maximal inhibition at human Kv1.5 (IC50) required 17.7 µM. The same molecule had an inhibition at 1 µM at hKv1.5 of 83.4%.

For `c1ccc(-c2csc3ncnc(NCCc4cccs4)c23)cc1` [Example 118, (5-Phenyl-thieno[2,3-d]pyrimidin-4-yl)-(2-thiophen-2-yl-ethyl)-amine], the IC50 on human Kv1.5 was found to be 8.56 µM. On hKv1.5, this molecule showed an inhibition at 1 µM of 15.8%.

In turn, `CC(C)CNc1ncnc2scc(-c3cccs3)c12` [Example 96, Isobutyl-(5-thiophen-2-yl-thieno[2,3-d]pyrimidin-4-yl)-amine] came in with a half-maximal inhibitory concentration (IC50) on human Kv1.5 of 6.32 µM. Further, testing at 1 µM on hKv1.5 gave an inhibition of 22.9%.

On human Kv1.5, `OCCNc1nc(NCc2ccccn2)c2c(-c3ccccc3)csc2n1` [Example 190, 2-{5-Phenyl-4-[(pyridin-2-ylmethyl)-amino]-thieno[2,3-d]pyrimidin-2-ylamino}-ethanol] gave an IC50 of 0.26 µM. The inhibition at 1 µM against hKv1.5 turned out to be 97.1%.

By IC50 is commonly meant the concentration that inhibits the measured activity by half. Read a high IC50 as lower potency. Usually inhibition stands for how much of the control response was suppressed. Read a low inhibition as a weak effect.
